Experimental data published in publication PMC6105673 (Nature Communications, 2018).
Non-standard residues stand in square brackets, D forms with d. *: point of attachment. Biotin = O=C1N[C@H]2[C@H](CS[C@H]2CCCCC(=O)*)N1; Hyp = O=C(O)[C@@H]1C[C@@H](O)CN1

How the values were obtained:
[1] = target: T1, pVHL-elongin B-elongin C (VBC) complex (Homo sapiens, UniProt P40337+Q15369+Q15370); assay: Biolayer interferometry kinetic analysis of VBC complex binding to biotinylated HIF-2α peptides; conditions: BLItz biolayer interferometry, peptide (523–541) immobilized, purified VBC, global 1:1 model; mean of three experiments ± SEM
T1 construct: a construct encoding N-terminal GST-tagged pVHL19 (54–213); GST (N, cleaved yes); made in house; host or cells: BL21(DE3) E. coli
Description: Absorbance was read at 450 nm. […] The data were analyzed based on a 1:1 binding model using the BLItz Pro software with the fitted curves shown as gray lines. […] Values represent mean of three experiments conducted with independently purified protein ± SEM. * denotes uncharacterized band
Multiple concentrations of purified VBC complex were diluted in kinetics buffer and allowed to associate with immobilized peptide over 120 s. Subsequently, the SA-BLI probe was immersed into kinetics buffer for 120 s to allow for dissociation. The data were analyzed, step corrected, reference corrected, and fit to a global 1:1 binding model. Kd, ka, and kd were calculated using the BLItz Pro software.

[2] = target: T1, pVHL-elongin B-elongin C (VBC) complex; assay: Steady-state ELISA of VBC complex binding to immobilized biotinylated HIF-2α peptides; conditions: peptides (523–541) on streptavidin plate; VBC 1, 5 and 25 μg/mL; anti-elongin B antibody; three independent experiments in duplicate
Description: (§1) Fig. 4 Affinity of HIF-2α mutants for pVHL is correlated with disease phenotype. a Biotinylated HIF-2α peptides (523–541) were immobilized on a streptavidin-coated 96-well plate. Binding to various concentrations of pVHL-elongin B-elongin C (VBC) complex was assayed via ELISA with an anti-eloB antibody. Absorbance was read at 450 nm. Values represent mean of three independent experiments performed in duplicate ± SEM. *p < 0.05; **p < 0.01. b Biotinylated HIF-2αOH peptides (523–541) were immobilized on streptavidin- agarose beads and incubated with in vitro transcribed and translated (IVTT) pVHL. Streptavidin beads were pulled down (PD) and levels of HA-tagged pVHL were visualized via immmunoblotting (IB). c, d Biolayer interferometry kinetic analysis of VBC complex binding to biotinylated HIF-2α peptides (523–541). c Biotinylated peptides were coupled to streptavidin- coated biosensors and monitored for binding to VBC complex at the indicated concentrations. The data were analyzed based on a 1:1 binding model using the BLItz Pro software with the fitted curves shown as gray lines. […]
A 96-well streptavidin-coated plate (Quidel) was hydrated with ~200 μL of buffer A per well. […] Following the final wash step, the plates were developed according to manufacturer’s recommendations with ready-to-use TMB1 reagent (Thermo-fisher, Cat. No. 34028) for 20 min before being quenched with 2 N H2SO4. […]

pVHL = assay: In vitro pVHL-HIF-2α binding assay (streptavidin pull-down with IVTT HA-VHL30); conditions: synthetically hydroxylated biotinylated peptides on streptavidin-agarose, IVTT HA-VHL30, 2 h at 4 °C, stringent and mild buffer
Description: as §1
The in vitro pVHL-HIF-2α binding assay was performed according to a previously published protocol. […] Protein levels of HA-VHL30 were determined by western blotting. […]

T1 sequence (P40337 54-213): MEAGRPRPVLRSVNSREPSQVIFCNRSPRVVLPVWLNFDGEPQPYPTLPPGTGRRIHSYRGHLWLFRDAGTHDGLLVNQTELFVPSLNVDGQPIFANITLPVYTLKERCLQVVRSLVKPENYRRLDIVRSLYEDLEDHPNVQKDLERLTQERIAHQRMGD
T1 sequence (Q15370 whole entry partner): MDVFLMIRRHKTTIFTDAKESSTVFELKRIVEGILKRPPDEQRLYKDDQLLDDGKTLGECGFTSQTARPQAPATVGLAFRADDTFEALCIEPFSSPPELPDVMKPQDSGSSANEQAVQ
T1 sequence (Q15369 17-112 partner limits assumed): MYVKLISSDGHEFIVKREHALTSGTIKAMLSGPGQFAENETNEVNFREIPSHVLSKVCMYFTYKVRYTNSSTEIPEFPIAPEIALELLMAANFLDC

CC[C@H](C)[C@H](NC(=O)[C@H](Cc1ccc(O)cc1)NC(=O)[C@@H]1C[C@@H](O)CN1C(=O)[C@H](C)NC(=O)[C@@H]1CCCN1C(=O)[C@@H](NC(=O)[C@H](CCC(=O)O)NC(=O)[C@H](CC(C)C)NC(=O)[C@H](CC(=O)O)NC(=O)[C@H](CC(C)C)NC(=O)[C@H](CCC(=O)O)NC(=O)CCCC[C@@H]1SC[C@@H]2NC(=O)N[C@@H]21)[C@@H](C)O)C(=O)N1CCC[C@H]1C(=O)N[C@@H](CCSC)C(=O)N[C@@H](CC(=O)O)C(=O)NCC(=O)N[C@@H](CCC(=O)O)C(=O)N[C@@H](CC(=O)O)C(=O)N[C@@H](Cc1ccccc1)C(=O)N[C@@H](CCC(N)=O)C(N)=O [HIF-2αOH (L529P)]
ka (association rate) [1]: 4.0 ± 0.4 x10^4 Ms^−1
binding to VBC by ELISA (absorbance at 450 nm, in words) [2]: does not have a statistically significant effect

HIF-2αOH L542 peptide: synthetically P531-hydroxylated HIF-2α peptide (523–542), presumably carrying L542P (Biotin-ELDLETLA[Hyp]YIPMDGEDFQP-NH2; SMILES CC[C@H](C)[C@H](NC(=O)[C@H](Cc1ccc(O)cc1)NC(=O)[C@@H]1C[C@@H](O)CN1C(=O)[C@H](C)NC(=O)[C@H](CC(C)C)NC(=O)[C@@H](NC(=O)[C@H](CCC(=O)O)NC(=O)[C@H](CC(C)C)NC(=O)[C@H](CC(=O)O)NC(=O)[C@H](CC(C)C)NC(=O)[C@H](CCC(=O)O)NC(=O)CCCC[C@@H]1SC[C@@H]2NC(=O)N[C@@H]21)[C@@H](C)O)C(=O)N1CCC[C@H]1C(=O)N[C@@H](CCSC)C(=O)N[C@@H](CC(=O)O)C(=O)NCC(=O)N[C@@H](CCC(=O)O)C(=O)N[C@@H](CC(=O)O)C(=O)N[C@@H](Cc1ccccc1)C(=O)N[C@@H](CCC(N)=O)C(=O)N1CCC[C@H]1C(N)=O)
binding of IVTT pVHL in pull-down (immunoblot, in words) (pVHL): rescued binding to pVHL
